Experimental data taken from patent publication US7884117B2, “Carbonylamino pyrrolopyrazoles, potent kinase inhibitors” (Pfizer Inc., priority 2005, dated 2011).

How the values were obtained:
[1] = target: T1, PAK4 Kinase domain (PAK4 KD) (Homo sapiens, UniProt O96013); assay: PAK4 kinase domain enzymatic assay (PK/LDH-coupled, Ki); format: biochemical; details: PAK4 Kinase Domain
T1 construct: Cloning, expression, and purification of recombinant PAK4 Kinase domain (PAK4 KD); His tag (pET28a(+)/pET24a(+), Ni-NTA purification) (N, cleaved yes); GST (pGST4.5, glutathione column) (N, cleaved yes); made in house; host or cells: E. coli BL21(DE3)
T1 sequence (O96013 321-572 limits assumed): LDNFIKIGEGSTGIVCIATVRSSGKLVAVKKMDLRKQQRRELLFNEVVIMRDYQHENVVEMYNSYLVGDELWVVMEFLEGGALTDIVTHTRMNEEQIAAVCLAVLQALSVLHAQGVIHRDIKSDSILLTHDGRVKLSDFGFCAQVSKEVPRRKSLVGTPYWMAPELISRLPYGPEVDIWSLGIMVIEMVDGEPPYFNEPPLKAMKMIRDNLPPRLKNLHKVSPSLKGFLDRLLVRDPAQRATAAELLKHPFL

[2] = target: T2, PAK4 kinase activity in whole cells (TR-293-KDG, modified HEK 293) (Homo sapiens, UniProt O96013); assay: PAK4 cellular assay: sandwich ELISA of PAK4-dependent phosphorylation of GEF-H1b in TR-293-KDG cells; format: cell-based; details: 3-hour exposure
T2 construct: engineered to overexpress both GEF-H1b and the kinase domain (KD) of PAK4; expressed in transfected cells; host or cells: TR-293-KDG (modified HEK 293, Trex system, Invitrogen)
T2 sequence (O96013 321-572 limits assumed): as above
Method: A sandwich ELISA method was used to measure the PAK4 kinase activity in whole cells. The level of PAK4-dependent phosphorylation of GEF-H1b can be determined by monitoring the binding of a phosphospecific antibody to GEF-H1b. […] The KD of PAK4 is inducible in this cell line by tetracycline (Trex system, Invitrogen). […] To establish a phosphorylation event on GEF-HL, cells are induced with doxycycline to express the PAK4 KD. […] Candidate substance effect is measured as the ability to block this phosphorylation event.
ELISA plate was prepared by pre-coating the plates with a capture antibody (α-HA-tag mouse monoclonal antibody), blocked with BSA, and washed in 0.1% tween 20 in tris-buffered saline (TBST). […] Cells were then lysed with a modified RIPA buffer supplemented with protease inhibitors. […] Between all subsequent steps plates were washed 4 times with TBST. Detection antibody (recognizing the phospho-specific eptitope on GEF-H1b) was added for 1 hour, followed by addition of an enzyme linked goat α-rabbit secondary antibody for 45 minutes. […] EC50 values were calculated by sigmoid curve fitting using a four-parameter analysis.

Row | Molecule | Ki [1] [nM] | EC50 [2] [nM]
1 | 3-[(2,4-difluorobenzoyl)amino]-N-[(1S)-2-(dimethylamino)-1-phenylethyl]-6,6-dimethyl-4,6-dihydropyrrolo[3,4-c]pyrazole-5(1H)-carbox- amide [Example 49] | 193 | 90.8
2 | CN(C)C[C@@H](NC(=O)N1Cc2c(NC(=O)c3ccccc3F)n[nH]c2C1(C)C)c1ccccc1 [Example 48, N-[(1S)-2-(dimethylamino)-1-phenylethyl]-3-[(2-fluorobenzoyl)amino]-6,6-dimethyl-4,6-dihydropyrrolo[3,4-c]pyrazole-5(1H)-carboxamide] | 98.3 | 36.4
3 | CN(C)C[C@@H](NC(=O)N1Cc2c(NC(=O)c3ccc(C(F)(F)F)cc3)n[nH]c2C1(C)C)c1ccccc1 [Example 50, N-[(1S)-2-(dimethylamino)-1-phenylethyl]-6,6-dimethyl-3-{[4-(trifluoromethyl)benzoyl]amino}-4,6-dihydropyrrolo[3,4-c]pyrazole-5(1H)-carboxamide] | 33.8 | 335
4 | CN(C)CC(OC(=O)N1Cc2c(NC(=O)c3ccc(F)cc3)n[nH]c2C1(C)C)c1ccc(C#N)cc1 (stereo not drawn) [Example 95, 1-(4-cyanophenyl)-2-(dimethylamino)ethyl 3-(4-fluorobenzamido)-6,6-dimethylpyrrolo[3,4-c] pyrazole-5(1H,4H,6H)-carboxylate] | 137 | 127
5 | COc1ccc(CC(=O)Nc2n[nH]c3c2CN(C(=O)N[C@H](CN(C)C)c2ccccc2)C3(C)C)cc1 [Example 55, N-[(1S)-2-(dimethylamino)-1-phenylethyl]-3-{[(4-methoxyphenyl)acetyl]amino}-6,6-dimethyl-4,6-dihydropyrrolo[3,4-c]pyrazole-5(1H)-carboxamide] | 13.6 | 148
6 | CN(C)C[C@@H](NC(=O)N1Cc2c(NC(=O)Cc3ccc(F)cc3)n[nH]c2C1(C)C)c1ccccc1 [Example 54, N-[(1S)-2-(dimethylamino)-1-phenylethyl]-3-{[(4-fluorophenyl)acetyl]amino}-6,6-dimethyl-4,6-dihydropyrrolo[3,4-c]pyrazole-5(1H)-carboxamide] | 41 | 353
7 | CC1(C)c2[nH]nc(NC(=O)c3ccc(F)cc3)c2CN1C(=O)OC(CN1CCCC1)c1ccccc1 (stereo not drawn) [Example 43, 1-phenyl-2-pyrrolidin-1-ylethyl 3-[(4-fluorobenzoyl)amino]-6,6-dimethyl-4,6-dihydropyrrolo[3,4-c]pyrazole-5(1H)-carboxylate] | 58.1 | 439
8 | CN(C)C[C@@H](OC(=O)N1Cc2c(NC(=O)c3ccc(C(F)(F)F)cc3)n[nH]c2C1(C)C)c1ccccn1 [Example 27, (1R)-2-(dimethylamino)-1-pyridin-2-ylethyl 6,6-dimethyl-3-{[4-(trifluoromethyl)benzoyl]amino}-4,6-dihydropyrrolo[3,4-c]pyrazole-5(1H)-carboxylate] | 82.1 | 79.9
9 | CN(C)CC(OC(=O)N1Cc2c(NC(=O)c3ccc(F)cc3)n[nH]c2C1(C)C)c1nccs1 (stereo not drawn) [Example 93, 2-(dimethylamino)-1-(thiazol-2-yl)ethyl 3-(4-fluorobenzamido)-6,6-dimethylpyrrolo[3,4-c] pyrazole-5(1H,4H,6H)-carboxylate] | 335 | 178
10 | CN(C)C[C@@H](NC(=O)N1Cc2c(NC(=O)c3ccccc3)n[nH]c2C1(C)C)c1ccccc1 [Example 46, 3-(benzoylamino)-N-[(1S)-2-(dimethylamino)-1-phenylethyl]-6,6-dimethyl-4,6-dihydro pyrrolo[3,4-c]pyrazole-5(1H)-carboxamide] | 33.6 | 32.1
11 | CC1(C)c2[nH]nc(NC(=O)c3cccs3)c2CN1C(=O)N[C@H]1C[C@@H]1c1ccccc1 (relative stereo) [Example 98, 6,6-dimethyl-N-[trans-2-phenylcyclopropyl]-3-[(2-thienylcarbonyl)amino]-4,6-dihydropyrrolo[3,4-c]pyrazole-5(1H)-carboxamide] | 19.5 | 1080

Other lines, results leading:

Row | Ki [1] [nM] | EC50 [2] [nM] | Molecule
12 | 8.13 | 80.2 | CN(C)C[C@@H](OC(=O)N1Cc2c(NC(=O)[C@@H]3C[C@H]3c3ccccc3)n[nH]c2C1(C)C)c1ccccc1 [Example 20, (1S)-2-(dimethylamino)-1-phenylethyl 6,6-dimethyl-3-({[trans-2-phenylcyclopropyl]carbonyl}amino)-4,6-dihydropyrrolo[3,4-c]pyrazole-5(1H)-carboxylate]
13 | 149 | 226 | CN(C)C[C@@H](OC(=O)N1Cc2c(NC(=O)c3cn(C)cn3)n[nH]c2C1(C)C)c1ccccc1 [Example 69, (1S)-2-(dimethylamino)-1-phenylethyl 6,6-dimethyl-3-{[(1-methyl-1H-imidazol-4-yl)carbonyl]amino}-4,6-dihydropyrrolo[3,4-c]pyrazole-5(1H)-carboxylate]
14 | 124 | 7.4 | CC(C)C(=O)Nc1n[nH]c2c1CN(C(=O)O[C@H](CN(C)C)c1ccccc1)C2(C)C [Example 8, (1S)-2-(dimethylamino)-1-phenylethyl 3-(isobutyrylamino)-6,6-dimethyl-4,6-dihydropyrrolo[3,4-c]pyrazole-5(1H)-carboxylate]
15 | 96.4 | 13.3 | CN(C)C[C@@H](OC(=O)N1Cc2c(NC(=O)C3CC3)n[nH]c2C1(C)C)c1ccccc1 [Example 9, (1S)-2-(dimethylamino)-1-phenylethyl 3-[(cyclopropylcarbonyl)amino]-6,6-dimethyl-4,6-dihydropyrrolo[3,4-c]pyrazole-5(1H)-carboxylate]
16 | 30.9 | 27.9 | CN(C)C[C@@H](OC(=O)N1Cc2c(NC(=O)c3ccccn3)n[nH]c2C1(C)C)c1ccccc1 [Example 6, (1S)-2-(dimethylamino)-1-phenylethyl 6,6-dimethyl-3-[(pyridin-2-ylcarbonyl)amino]-4,6-dihydropyrrolo[3,4-c]pyrazole-5(1H)-carboxylate]
17 | 101 | 15.7 | CN(C)C[C@@H](OC(=O)N1Cc2c(NC(=O)C3CCC3)n[nH]c2C1(C)C)c1ccccc1 [Example 11, (1S)-2-(dimethylamino)-1-phenylethyl 3-[(cyclobutylcarbonyl)amino]-6,6-dimethyl-4,6-dihydropyrrolo[3,4-c]pyrazole-5(1H)-carboxylate]
18 | 6.9 | 37.1 | CN(C)C[C@@H](NC(=O)N1Cc2c(NC(=O)[C@@H]3C[C@H]3c3ccccc3)n[nH]c2C1(C)C)c1ccccc1 [Example 56, N-[(1S)-2-(dimethylamino)-1-phenylethyl]-6,6-dimethyl-3-({[trans-2-phenylcyclopropyl]carbonyl}amino)-4,6-dihydropyrrolo[3,4-c]pyrazole-5(1H)-carboxamide]
19 | 259 | 110 | CN(C)C[C@@H](OC(=O)N1Cc2c(NC(=O)C3CN(C)CCO3)n[nH]c2C1(C)C)c1ccccc1 (stereo partly drawn) [Example 17, (1S)-2-(dimethylamino)-1-phenylethyl 6,6-dimethyl-3-{[(4-methylmorpholin-2-yl)carbonyl]amino}-4,6-dihydropyrrolo[3,4-c]pyrazole-5(1H)-carboxylate]
20 | 36.2 | 5 | CN(C)CC(OC(=O)N1Cc2c(n[nH]c2NC(=O)C2CCCO2)C1(C)C)c1cccc(F)c1 (single isomer, unassigned) [Example 83B]
21 | 70 | 16 | CN(C)CC(OC(=O)N1Cc2c(n[nH]c2NC(=O)C2CCCO2)C1(C)C)c1cccc(F)c1 (single isomer, unassigned) [Example 84A]
22 | 95.5 | 3.27 | CN(C)C[C@@H](OC(=O)N1Cc2c(NC(=O)C3CCCC3)n[nH]c2C1(C)C)c1ccccc1 [Example 12, (1S)-2-(dimethylamino)-1-phenylethyl 3-[(cyclopentylcarbonyl)amino]-6,6-dimethyl-4,6-dihydropyrrolo[3,4-c]pyrazole-5(1H)-carboxylate]
23 | 68.7 | 18 | Cc1cc(C(=O)Nc2n[nH]c3c2CN(C(=O)O[C@H](CN(C)C)c2ccccc2)C3(C)C)no1 [Example 86, (S)-2-(dimethylamino)-1-phenylethyl 6,6-dimethyl-3-(5-methylisoxazole-3-carboxamido)pyrrolo[3,4-c]pyrazole-5(1H,4H,6H)-carboxylate]
24 | 16.2 | 124 | CNC[C@@H](OC(=O)N1Cc2c(NC(=O)c3ccc(F)cc3)n[nH]c2C1(C)C)c1ccccc1 [Example 121, (S)-2-(methylamino)-1-phenylethyl 3-(4-fluorobenzamido)-6,6-dimethylpyrrolo[3,4-c]pyrazole-5(1H,4H,6H)-carboxylate]
25 | 47.5 | 15.3 | CN(C)CC(OC(=O)N1Cc2c(NC(=O)c3ccc(F)cc3)n[nH]c2C1(C)C)c1ccc(F)cc1 (stereo not drawn) [Example 39, 2-(dimethylamino)-1-(4-fluorophenyl)ethyl 3-[(4-fluorobenzoyl)amino]-6,6-dimethyl-4,6-dihydropyrrolo[3,4-c]pyrazole-5(1H)-carboxylate]
26 | 92.3 | 216 | CC(C)C[C@@H](CN(C)C)OC(=O)N1Cc2c(NC(=O)c3ccccc3)n[nH]c2C1(C)C [Example 35, (1S)-1-[(dimethylamino)methyl]-3-methylbutyl 3-(benzoylamino)-6,6-dimethyl-4,6-dihydropyrrolo[3,4-c]pyrazole-5(1H)-carboxylate]
27 | 64.9 | 152 | CC(C)N(C)C[C@@H](OC(=O)N1Cc2c(NC(=O)c3ccc(F)cc3)n[nH]c2C1(C)C)c1ccccc1 [Example 40, (1S)-2-[isopropyl(methyl)amino]-1-phenylethyl 3-[(4-fluorobenzoyl)amino]-6,6-dimethyl-4,6-dihydropyrrolo[3,4-c]pyrazole-5(H)-carboxylate]
